The term IC50 denotes the midpoint of a concentration-inhibition curve. As usually defined, the EC50 is the concentration at which the effect is half-maximal.

Assay [1] addresses T1, HCV NS5B polymerase 1a-H77 (Hepatitis C virus genotype 1a, UniProt P27958).
T1 construct: six-histidine tag; made in house; host or cells: E. coli
Nature of the assay: biochemical. The following applies: enzyme, strain 1a H77; read-out: HCV Polymerase Strain 1a H77 IC50. On the set-up: species or system HCV genotype 1a. Put shortly:
(§1)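 Recombinant NS5B (residues 1–570, His-tagged, E. coli-expressed) copied 5 nM of a 2.1 kb HCV 1b negative-strand 3′-end RNA template with 20 μM CTP, 20 μM ATP and 0.284 μM [3H]UTP for 3 h at 30 °C. Spermine-precipitated RNA was filter-captured and counted, and IC50 was fitted by nonlinear regression.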

Assay [2] deals with T2, HCV NS5B polymerase 1a-H77-C316Y (Hepatitis C virus genotype 1a, UniProt P27958, C2736Y).
T2 construct: six-histidine tag; made in house; host or cells: E. coli
T2 sequence (P27958 2421-2990 C2736Y): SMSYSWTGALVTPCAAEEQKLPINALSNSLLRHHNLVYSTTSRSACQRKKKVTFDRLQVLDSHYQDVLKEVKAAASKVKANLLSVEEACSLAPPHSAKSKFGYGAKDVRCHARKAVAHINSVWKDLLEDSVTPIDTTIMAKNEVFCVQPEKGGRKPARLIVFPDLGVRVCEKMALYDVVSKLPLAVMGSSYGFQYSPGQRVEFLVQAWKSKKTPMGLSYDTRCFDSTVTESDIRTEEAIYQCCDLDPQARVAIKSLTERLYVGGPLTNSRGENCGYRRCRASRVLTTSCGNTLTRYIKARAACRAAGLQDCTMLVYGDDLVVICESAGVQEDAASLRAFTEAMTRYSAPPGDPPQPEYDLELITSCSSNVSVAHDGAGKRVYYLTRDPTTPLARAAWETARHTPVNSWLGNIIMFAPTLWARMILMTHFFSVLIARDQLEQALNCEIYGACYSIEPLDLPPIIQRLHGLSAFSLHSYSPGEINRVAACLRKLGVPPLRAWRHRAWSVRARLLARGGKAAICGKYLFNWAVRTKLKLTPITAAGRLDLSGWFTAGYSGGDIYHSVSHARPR
Nature of the assay: biochemical. On the set-up: species or system HCV genotype 1a. Put shortly: as §1

The test system of assay [3] is HCV NS5B polymerase 1a-H77-C316Y. Kind of assay: biochemical. Also noted: species or system HCV genotype 1a. The conditions noted are these: ratio of enzyme IC50s, 1a H77-C316Y / 1a H77. In short, it runs like this:
as §1

For assay [4], the target named is T3, HCV NS5B polymerase 1b BK strain (Hepatitis C virus genotype 1b, UniProt P26663).
T3 construct: six-histidine tag; made in house; host or cells: E. coli
T3 sequence (P26663 2420-2989): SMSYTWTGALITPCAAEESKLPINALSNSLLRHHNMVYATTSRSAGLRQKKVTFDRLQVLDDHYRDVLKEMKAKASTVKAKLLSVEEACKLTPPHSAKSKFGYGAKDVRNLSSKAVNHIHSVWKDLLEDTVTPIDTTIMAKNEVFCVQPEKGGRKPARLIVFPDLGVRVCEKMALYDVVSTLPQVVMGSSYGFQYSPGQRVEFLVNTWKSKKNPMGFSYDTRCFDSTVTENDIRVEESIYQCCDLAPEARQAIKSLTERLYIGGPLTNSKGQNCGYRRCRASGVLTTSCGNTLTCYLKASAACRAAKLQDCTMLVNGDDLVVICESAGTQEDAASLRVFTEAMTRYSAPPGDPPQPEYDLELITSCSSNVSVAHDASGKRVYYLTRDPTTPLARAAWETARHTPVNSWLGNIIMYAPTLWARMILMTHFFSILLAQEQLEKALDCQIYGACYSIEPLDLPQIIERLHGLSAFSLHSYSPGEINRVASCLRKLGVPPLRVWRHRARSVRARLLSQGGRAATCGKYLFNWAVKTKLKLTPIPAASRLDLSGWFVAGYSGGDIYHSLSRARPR
Kind of assay: HCV NS5B polymerase enzymatic inhibition assay, strain 1b BK. The following applies: enzyme, strain 1b BK; read-out: HCV Polymerase Strain 1b BK IC50. Type of assay: biochemical. Put shortly:
as §1

For assay [5], the system named is HCV 1a-H77 subgenomic replicon. Nature of the assay: microbe, parasite or virus in culture. Type of assay: cell-based, HCV genotype 1a. The following applies: Hepatitis C virus, stable replicon.
For assay [6], the system named is HCV 1b-BB7 subgenomic replicon. Nature of the assay: microbe, parasite or virus in culture. Format: cell-based, HCV genotype 1b. The following applies: Hepatitis C virus, stable replicon. On the technique in general: A replicon is a self-replicating genome or part of one, used to study replication in cells.
Assay [7] deals with chimeric replicon with 2a-J6CF-derived NS5B. Kind of assay: microbe, parasite or virus in culture. Type of assay: cell-based, HCV genotype 2a. The conditions noted are these: Hepatitis C virus, read-out: 2a chimera 5% FBS EC50.
Assay [8] relates to chimeric replicon with genotype 2b NS5B. Kind of assay: microbe, parasite or virus in culture. Type of assay: cell-based, HCV genotype 2b. The conditions noted are these: Hepatitis C virus, read-out: 2b chimera 5% FBS EC50.
Assay [9] relates to chimeric replicon with genotype 3a NS5B. Kind of assay: microbe, parasite or virus in culture. The conditions noted are these: Hepatitis C virus, read-out: 3a chimera 5% FBS EC50. Format: cell-based, HCV genotype 3a.
The test system of assay [10] is chimeric replicon with genotype 4a NS5B. Nature of the assay: microbe, parasite or virus in culture. Format: cell-based, HCV genotype 4a. The following applies: Hepatitis C virus, read-out: 4a chimera 5% FBS EC50.
Assay [11] concerns HCV 1a-H77 transient subgenomic replicon in Huh-7 derived cell line. Kind of assay: microbe, parasite or virus in culture. Format: cell-based, HCV genotype 1a. The following applies: Hepatitis C virus, Huh-7; transient replicon, 5% FBS; read-out: Transient Replicon 1a H77 5% FBS EC50. On the procedure:
(§2) In addition to the stable replicon inhibition assays, transient replicon assays were performed. Transient replicons are identical to the 1a-H77 and 1a-H77-C316Y constructs, except they lack the Neo gene, making it impossible to establish stable cell lines. A T7 Megascript RNA synthesis kit (Ambion) was used to transcribe the HCV subgenomic RNA. The HCV RNA was then precipitated with lithium chloride according to manufacturer's instructions. The HCV subgenomic replicon RNA was transfected via electroporation into a Huh-7 derived cell line as described (Middleton T, et al. J. Virological Methods 2007; 145(2): 137-145). Transfected cells were diluted and plated in 96 well plates at 5×10^3 cells per well in DMEM. Four hours post-transfection, the wells from one plate were harvested for luciferase measurement. This plate provides a measure of the amount of translatable input RNA, and therefore transfection efficiency. To the wells of the remaining plates, a 3-fold dilution series of test compounds was added in DMSO (0.5% DMSO final concentration), and plates were incubated at 37° C., 5% CO2 in a humidified incubator for 4 days. After this period, the media was removed and the plates were washed with 100 μL phosphate-buffered saline per well. For the luciferase assay, 30 μL of Passive Lysis buffer (Promega) was added to each well, and then the plates were incubated for 15 minutes with rocking to lyse the cells. Luciferin solution (100 μL, Promega) was added to each well, and luciferase activity was measured with a Victor II luminometer (Perkin-Elmer). The EC50 values were calculated using GraphPad Prism 4 software.

The test system of assay [12] is HCV 1a-H77-C316Y transient subgenomic replicon in Huh-7 derived cell line. Kind of assay: microbe, parasite or virus in culture. The conditions noted are these: for EC50: Hepatitis C virus, Huh-7, read-out: Transient Replicon 1a H77-C316Y 5% FBS EC50; for Transient Replicon Fold Resistance C316Y/1a: ratio of transient replicon EC50s, C316Y / 1a H77. Format: cell-based, HCV genotype 1a. Here is the method:
as §2

Where [13] appears, read: 5% FBS, absence of human plasma, read-out: Stable Replicon 1a H77 5% FBS EC50.
Setting [14] is: strain 1a H77, 5% FBS + 40% human plasma, read-out: 1a H77 5% FBS + 40% Human Plasma EC50.
The mark [15] stands for this setting: strain 1a H77, 5% FBS, no human plasma, read-out: 1a H77 5% FBS EC50.
[16] abbreviates: strain 1a H77, 5% FBS, read-out: 1a H77 5% FBS EC50.
[17] abbreviates: strain 1b BB7, 5% FBS + 40% human plasma, read-out: 1b BB7 5% FBS + 40% Human Plasma EC50.
[18] abbreviates: strain 1b BB7, 5% FBS, no human plasma, read-out: 1b BB7 5% FBS EC50.
The mark [19] stands for this setting: strain 1b BB7, 5% FBS, read-out: 1b BB7 5% FBS EC50.

Read-outs that look alike come from different tables or passages of the source.

T1 sequence (P27958 2421-2990): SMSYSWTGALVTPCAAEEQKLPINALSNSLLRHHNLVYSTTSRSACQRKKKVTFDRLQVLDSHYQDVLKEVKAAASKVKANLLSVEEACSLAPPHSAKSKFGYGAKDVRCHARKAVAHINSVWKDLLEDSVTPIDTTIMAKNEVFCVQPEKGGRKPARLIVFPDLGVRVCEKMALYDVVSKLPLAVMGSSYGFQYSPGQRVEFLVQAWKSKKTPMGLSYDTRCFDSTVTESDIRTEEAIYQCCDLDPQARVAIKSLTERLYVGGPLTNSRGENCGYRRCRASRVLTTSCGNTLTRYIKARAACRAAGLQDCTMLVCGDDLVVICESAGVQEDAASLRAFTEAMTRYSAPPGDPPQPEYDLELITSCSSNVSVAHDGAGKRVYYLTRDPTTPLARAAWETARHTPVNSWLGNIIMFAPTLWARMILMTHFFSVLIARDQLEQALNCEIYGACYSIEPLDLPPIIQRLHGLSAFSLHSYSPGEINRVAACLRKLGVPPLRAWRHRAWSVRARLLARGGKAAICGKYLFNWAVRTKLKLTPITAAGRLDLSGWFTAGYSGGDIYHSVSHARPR

Take `CS(=O)(=O)N(CCCCC(N)=O)c1cc2oc(-c3ccc(F)cc3)c(-c3ncc[nH]3)c2cc1C1CC1` [Example 91, 5-{[5-cyclopropyl-2-(4-fluorophenyl)-3-(1H-imidazol-2-yl)-1-benzofuran-6-yl](methylsulfonyl)amino}pentanamide]: the IC50 in [1] amounted to 0.0053 µM; in assay [2] it was 0.08 µM; in [4] it was 0.026 µM. Moreover, the “C316Y/1a Fold Resistance” value in assay [3] is listed as 15 fold. Besides, the EC50 in assay [5] (setting [13]) came out at 0.0063 µM; in assay [5] (setting [14]), 0.032 µM; in assay [5] (setting [15]) it was 0.0063 µM; in assay [5] (setting [16]), 0.00634 µM; in [6] (setting [17]), 0.034 µM; in assay [6] (setting [18]), 0.0049 µM. The EC50 in [6] (setting [19]) amounted to 0.0049 µM; in [7], 0.0858 µM; in assay [8], 0.0994 µM; in assay [9], 0.008 µM; in assay [10] it was 0.0888 µM; in [11], 0.0056 µM. Moreover, in assay [12], the EC50 was found to be 0.121 µM. Also, the “Transient Replicon Fold Resistance C316Y/1a” value in assay [12] is 22 fold.
In the case of `CCOC(=O)CCCCN(c1cc2oc(-c3ccc(F)cc3)c(-c3ncc[nH]3)c2cc1C1CC1)S(C)(=O)=O` [Example 50, ethyl 5-{[5-cyclopropyl-2-(4-fluorophenyl)-3-(1H-imidazol-2-yl)-1-benzofuran-6-yl](methylsulfonyl)amino}pentanoate], the concentration for half-maximal inhibition (IC50) in assay [1] turned out to be 0.0039 µM; in assay [2] it was 0.104 µM; in assay [4], 0.012 µM. Also, in [3], the “C316Y/1a Fold Resistance” value came to 27 fold. Further, the EC50 in [5] (setting [13]) is 0.0122 µM; in [5] (setting [14]), 0.097 µM; in assay [5] (setting [15]) it was 0.0122 µM; in assay [5] (setting [16]), 0.0122 µM; in assay [6] (setting [17]) it was 0.067 µM; in [6] (setting [18]) it was 0.0087 µM. Besides, the EC50 was 0.0087 µM in assay [6] (setting [19]); 0.0907 µM in assay [7]; 0.147 µM in [8]; 0.0153 µM in assay [9]; 0.149 µM in assay [10]; 0.0095 µM in [11]. In addition, in assay [12], the EC50 was 0.169 µM. Also, the “Transient Replicon Fold Resistance C316Y/1a” value in assay [12] was determined as 18 fold.
`CC(O)CCCN(c1cc2oc(-c3ccc(F)cc3)c(-c3ncc[nH]3)c2cc1C1CC1)S(C)(=O)=O` (stereo not drawn) [Example 100, N-[5-cyclopropyl-2-(4-fluorophenyl)-3-(1H-imidazol-2-yl)-1-benzofuran-6-yl]-N-(4-hydroxypentyl)methanesulfonamide]: the IC50 in assay [1] was 0.0035 µM; in assay [2], 0.053 µM; in [4], 0.008 µM. Moreover, in [3], the “C316Y/1a Fold Resistance” value is recorded as 15 fold. Further, the concentration for a half-maximal effect (EC50) stood at 0.006 µM in assay [5] (setting [13]); 0.088 µM in assay [5] (setting [14]); 0.006 µM in assay [5] (setting [15]); 0.006 µM in [5] (setting [16]); 0.057 µM in assay [6] (setting [17]); 0.0034 µM in [6] (setting [18]). In addition, the EC50 is 0.0034 µM in assay [6] (setting [19]); 0.0198 µM in assay [7]; 0.0163 µM in assay [8]; 0.0031 µM in assay [9]; 0.0216 µM in assay [10]; 0.0042 µM in assay [11]. Further, in [12], the EC50 was determined as 0.0891 µM. Also, the “Transient Replicon Fold Resistance C316Y/1a” value in assay [12] is on record as 21 fold.
In the case of `CS(=O)(=O)N(CCCO)c1cc2oc(-c3ccc(F)cc3)c(C3=NOCCN3)c2cc1C1CC1` [Example 137, N-[5-cyclopropyl-3-(5,6-dihydro-4H-1,2,4-oxadiazin-3-yl)-2-(4-fluorophenyl)-1-benzofuran-6-yl]-N-(3-hydroxypropyl)methanesulfonamide], the half-inhibitory concentration (IC50) amounted to 0.0042 µM in assay [1], 0.039 µM in assay [2] and 0.079 µM in [4]. Also, the “C316Y/1a Fold Resistance” value in assay [3] is 9 fold. Besides, the EC50 in [5] (setting [13]) was 0.015 µM; in assay [5] (setting [14]), 0.059 µM; in [5] (setting [15]), 0.015 µM; in [5] (setting [16]) it was 0.015 µM; in [6] (setting [17]) it was 0.113 µM; in assay [6] (setting [18]), 0.017 µM. Further, the EC50 amounted to 0.017 µM in assay [6] (setting [19]); 0.182 µM in [7]; 0.214 µM in [8]; 0.033 µM in assay [9]; 0.172 µM in [10]; 0.0101 µM in assay [11]. The EC50 in assay [12] worked out at 0.107 µM. Besides, in assay [12], the “Transient Replicon Fold Resistance C316Y/1a” value came to 11 fold.
With `CS(=O)(=O)N(CCC1CCS(=O)(=O)C1)c1cc2oc(-c3ccc(F)cc3)c(C3=NOCCN3)c2cc1C1CC1` (stereo not drawn) [Example 123], the IC50 in assay [1] worked out at 0.0095 µM; in [2] it was 0.076 µM; in assay [4], 0.014 µM. Besides, the “C316Y/1a Fold Resistance” value in [3] was 8 fold. The EC50 in assay [5] (setting [13]) is 0.0109 µM; in assay [5] (setting [14]), 0.108 µM; in [5] (setting [15]), 0.0109 µM; in assay [5] (setting [16]), 0.0109 µM; in assay [6] (setting [17]), 0.211 µM; in assay [6] (setting [18]), 0.018 µM. In addition, the EC50 in [6] (setting [19]) was found to be 0.018 µM; in assay [7], 0.162 µM; in assay [8], 0.105 µM; in assay [9], 0.0364 µM; in assay [10], 0.0581 µM; in assay [11] it was 0.0107 µM. The EC50 in [12] was 0.0789 µM. Also, the “Transient Replicon Fold Resistance C316Y/1a” value in [12] is 7 fold.
With `CS(=O)(=O)CCN(c1cc2oc(-c3ccc(F)cc3)c(-c3ncc[nH]3)c2cc1C1CC1)S(C)(=O)=O` [Example 87, N-[5-cyclopropyl-2-(4-fluorophenyl)-3-(1H-imidazol-2-yl)-1-benzofuran-6-yl]-N-[2-(methylsulfonyl)ethyl]methanesulfonamide], the IC50 was 0.006 µM in [1], 0.156 µM in assay [2] and 0.023 µM in assay [4]. In addition, the “C316Y/1a Fold Resistance” value in assay [3] amounted to 26 fold. In addition, the EC50 in [5] (setting [13]) was found to be 0.0076 µM; in [5] (setting [14]), 0.065 µM; in assay [5] (setting [15]), 0.0076 µM; in [5] (setting [16]) it was 0.0076 µM; in assay [6] (setting [17]) it was 0.057 µM; in assay [6] (setting [18]) it was 0.0049 µM. Also, the EC50 is 0.0049 µM in assay [6] (setting [19]); 0.0645 µM in assay [7]; 0.0849 µM in assay [8]; 0.0032 µM in [9]; 0.0484 µM in [10]; 0.0061 µM in assay [11]. The EC50 in [12] came out at 0.155 µM. Besides, the “Transient Replicon Fold Resistance C316Y/1a” value in assay [12] is on record as 25 fold.
